Laboratory results reported in patent US20250376461A1, “INDAZOLE DERIVATIVES FOR TREATING TRPM3-MEDIATED DISORDERS” (Katholieke Universiteit Leuven, priority 2022, published 2025).

Biological target: T1, mouse TRPM3α2 (mTRPM3) ion channel (Mus musculus, UniProt J9SQF3)
T1 construct: expressed in transfected cells; host or cells: flip-in HEK293
Assay: TRPM3 ion channel driven Ca2+ uptake, Fluo-4 AM assay, mTRPM3alpha2 overexpressing flip-in HEK293 cells stimulated with pregnenolone sulfate (50 μM)
Assay type: cell-based
Conditions: mTRPM3 overexpressing HEK293 cells stimulated with pregnenolone sulfate (50 μM), activity ranges A, B, C
Method: Monitoring the TRPM3 Ion Channel Driven Ca2+ Uptake.
In order to monitor the inhibition of the mouse TRPM3α2 (mTRPM3) ion channel by the compounds of the invention, a cellular system making use of an mTRPM3alpha2 or hTRPM3 overexpressing cell line (flip-in HEK293) was used. The TRPM3 channel was stimulated/opened with Pregnenolone sulfate (PS) (50 μM) which results in Ca^2+ influx.
For mTRPM3, the intracellular Ca^2+ was measured with a Calcium responsive dye, Fluor-4 AM ester (Invitrogen). Cells were cultured until a confluence of 80-90%, washed with Versene (Invitrogen) and detached from the surface by a short incubation with 0.05% Trypsin (Invitrogen). The trypsination process was stopped by the addition of complete cell culture medium (DMEM, glutamax, 10% FCS, NEAA, Pen-Strep). Cells were collected and resuspended in Krebs buffer without Calcium at RT.
Prior the cell seeding (±2000 cells/well into a black, 384 well plate (Greiner)) the diluted compound was added in the assay plate, together with the PS dissolved in Krebs buffer containing Calcium. […] Directly after cell addition the plates were read on an Envision fluorescence reader (Perkin Elmer) by an Excitation of 485 nm and emission at 535 nm.
Channel inhibition was calculated compared to a non-PS stimulated control versus a condition stimulated with PS (50 μM) with vehicle. The ability of the compounds of the invention to inhibit this activity was determined as: Percentage inhibition=[1−((RFU determined for sample with test compound present−RFU determined for sample with positive control inhibitor) divided by (RFU determined in the presence of vehicle−RFU determined for sample with positive control inhibitor))]*100.
The activities of the Example compounds cpd 001-262 tested are depicted in the table below. All tested compounds show an activity in the Fluo-4 AM assay. The activity ranges A, B and C refer to IC50 values in the Fluo-4 AM assay as follows: “A”: IC50<1 μM; “B”: 1 μM≤IC50≤20 μM and “C”: IC50>20 μM.

T1 sequence (J9SQF3 1-1709 isoform J9SQF3-12): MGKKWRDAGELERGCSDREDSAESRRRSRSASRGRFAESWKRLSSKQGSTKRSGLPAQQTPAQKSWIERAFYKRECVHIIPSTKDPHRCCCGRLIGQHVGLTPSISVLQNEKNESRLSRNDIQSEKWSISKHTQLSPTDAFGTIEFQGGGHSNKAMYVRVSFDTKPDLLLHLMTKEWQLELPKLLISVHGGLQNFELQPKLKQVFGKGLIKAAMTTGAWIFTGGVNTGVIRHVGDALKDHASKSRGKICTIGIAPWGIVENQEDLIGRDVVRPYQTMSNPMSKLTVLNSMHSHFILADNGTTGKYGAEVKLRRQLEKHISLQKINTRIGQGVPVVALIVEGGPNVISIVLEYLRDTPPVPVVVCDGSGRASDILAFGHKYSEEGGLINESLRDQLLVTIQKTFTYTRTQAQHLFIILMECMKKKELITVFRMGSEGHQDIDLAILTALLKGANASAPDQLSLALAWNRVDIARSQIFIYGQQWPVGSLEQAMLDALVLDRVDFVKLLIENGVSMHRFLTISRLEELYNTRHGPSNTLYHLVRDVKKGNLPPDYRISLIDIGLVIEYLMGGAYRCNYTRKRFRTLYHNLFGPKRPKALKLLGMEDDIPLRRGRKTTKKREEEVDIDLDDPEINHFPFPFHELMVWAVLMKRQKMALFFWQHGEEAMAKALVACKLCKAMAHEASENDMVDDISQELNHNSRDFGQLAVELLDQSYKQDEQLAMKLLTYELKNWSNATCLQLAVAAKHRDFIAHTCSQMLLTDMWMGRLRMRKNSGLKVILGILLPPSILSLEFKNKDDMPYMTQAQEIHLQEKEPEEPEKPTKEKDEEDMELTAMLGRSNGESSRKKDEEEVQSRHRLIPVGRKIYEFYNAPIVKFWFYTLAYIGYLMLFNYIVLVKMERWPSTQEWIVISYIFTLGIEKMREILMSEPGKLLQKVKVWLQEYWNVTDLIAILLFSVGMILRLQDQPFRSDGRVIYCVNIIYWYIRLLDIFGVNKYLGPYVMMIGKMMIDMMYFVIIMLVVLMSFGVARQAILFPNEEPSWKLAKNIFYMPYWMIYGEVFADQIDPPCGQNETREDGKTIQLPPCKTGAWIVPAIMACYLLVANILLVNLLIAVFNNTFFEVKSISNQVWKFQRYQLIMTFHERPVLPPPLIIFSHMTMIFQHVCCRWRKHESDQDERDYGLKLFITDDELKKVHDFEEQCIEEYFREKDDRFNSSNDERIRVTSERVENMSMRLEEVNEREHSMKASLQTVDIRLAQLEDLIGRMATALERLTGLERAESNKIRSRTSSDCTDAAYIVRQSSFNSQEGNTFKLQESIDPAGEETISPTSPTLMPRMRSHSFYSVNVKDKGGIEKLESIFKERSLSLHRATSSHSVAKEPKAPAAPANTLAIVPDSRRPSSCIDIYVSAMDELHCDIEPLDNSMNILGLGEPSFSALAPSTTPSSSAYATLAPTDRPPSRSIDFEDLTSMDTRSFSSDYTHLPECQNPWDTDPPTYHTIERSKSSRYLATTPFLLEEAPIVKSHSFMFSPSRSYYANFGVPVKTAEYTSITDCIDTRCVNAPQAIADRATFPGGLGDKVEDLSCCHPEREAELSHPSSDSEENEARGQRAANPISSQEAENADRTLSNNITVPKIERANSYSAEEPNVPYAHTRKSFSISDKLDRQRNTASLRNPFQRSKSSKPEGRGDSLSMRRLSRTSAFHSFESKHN

IC50 [µM] | SMILES
> 20 | CN(C)C(=O)C(C)(CO)NC(=O)c1c2cc(OCc3cccnc3C(F)(F)F)ccc2nn1C (single isomer, unassigned) [Cpd 193 - En2, 3-hydroxy-N,N,2-trimethyl-2-[(2-methyl-5-{[2-(trifluoromethyl)pyridin-3-yl]methoxy}-2H-indazol-3-yl)formamido]propanamide]
< 1 | Cn1nc2ccc(OCc3ccccc3F)cc2c1C(=O)NC(C)(CO)C(N)=O (single isomer, unassigned) [Cpd 194 - En1]
< 1 | Cn1nc2ccc(OCc3ccccc3F)cc2c1C(=O)NC(C)(CO)C(N)=O (single isomer, unassigned) [Cpd 194 - En2]
> 20 | Cc1ncc(COc2ccc3nn(C(C)C)c(C(=O)NC(C)(CO)C(N)=O)c3c2)s1 (single isomer, unassigned) [Cpd 195 - En1]
< 1 | Cc1ncc(COc2ccc3nn(C(C)C)c(C(=O)NC(C)(CO)C(N)=O)c3c2)s1 (single isomer, unassigned) [Cpd 195 - En2]
< 1 | Cn1nc2ccc(OCc3ccccn3)cc2c1C(=O)NC(C)(CO)CC(F)F (single isomer, unassigned) [Cpd 201 - En1, N-(4,4-difluoro-1-hydroxy-2-methylbutan-2-yl)-2-methyl-5-[(pyridin-2-yl)methoxy]-2H-indazole-3-carboxamide]
< 1 | Cn1nc2ccc(OCc3ccccn3)cc2c1C(=O)NC(C)(CO)CC(F)F (single isomer, unassigned) [Cpd 201 - En2, N-(4,4-difluoro-1-hydroxy-2-methylbutan-2-yl)-2-methyl-5-[(pyridin-2-yl)methoxy]-2H-indazole-3-carboxamide]
< 1 | Cn1nc2ccc(OCc3cccnc3C(F)(F)F)cc2c1C(=O)NC(C)(CO)CC(F)F (single isomer, unassigned) [Cpd 202 - En1]
< 1 | Cn1nc2ccc(OCc3cccnc3C(F)(F)F)cc2c1C(=O)NC(C)(CO)CC(F)F (single isomer, unassigned) [Cpd 202 - En2]
< 1 | Cn1nc2ccc(OCc3ccccc3F)cc2c1C(=O)NC(C)(CO)CC(F)F (single isomer, unassigned) [Cpd 203 - En1]
< 1 | Cn1nc2ccc(OCc3ccccc3F)cc2c1C(=O)NC(C)(CO)CC(F)F (single isomer, unassigned) [Cpd 203 - En2]
1 to 20 | Cc1ncsc1COc1ccc2nn(C)c(C(=O)NC3CNCCC3(F)F)c2c1 (single isomer, unassigned) [Cpd 211 - En1, N-(4,4-difluoropiperidin-3-yl)-2-methyl-5-[(4-methyl-1,3-thiazol-5-yl)methoxy]-2H-indazole-3-carboxamide]
< 1 | Cc1ncsc1COc1ccc2nn(C)c(C(=O)NC3CNCCC3(F)F)c2c1 (single isomer, unassigned) [Cpd 211 - En2, N-(4,4-difluoropiperidin-3-yl)-2-methyl-5-[(4-methyl-1,3-thiazol-5-yl)methoxy]-2H-indazole-3-carboxamide]
1 to 20 | Cn1nc2ccc(OCc3ccccn3)cc2c1C(=O)NC1CNCCC1(F)F (single isomer, unassigned) [Cpd 212 - En1, N-(4,4-difluoropiperidin-3-yl)-2-methyl-5-[(pyridin-2-yl)methoxy]-2H-indazole-3-carboxamide]
> 20 | Cn1nc2ccc(OCc3ccccn3)cc2c1C(=O)NC1CNCCC1(F)F (single isomer, unassigned) [Cpd 212 - En2, N-(4,4-difluoropiperidin-3-yl)-2-methyl-5-[(pyridin-2-yl)methoxy]-2H-indazole-3-carboxamide]
1 to 20 | Cc1ncsc1COc1ccc2nn(C)c(C(=O)NC3CNCC(F)(F)C3)c2c1 (single isomer, unassigned) [Cpd 213 - En1]
> 20 | Cc1ncsc1COc1ccc2nn(C)c(C(=O)NC3CNCC(F)(F)C3)c2c1 (single isomer, unassigned) [Cpd 213 - En2]
> 20 | Cn1nc2ccc(OCc3ccccn3)cc2c1C(=O)NC1CNCC(F)(F)C1 (single isomer, unassigned) [Cpd 214 - En1]
1 to 20 | Cn1nc2ccc(OCc3ccccn3)cc2c1C(=O)NC1CNCC(F)(F)C1 (single isomer, unassigned) [Cpd 214 - En2]
> 20 | Cc1ncsc1COc1ccc2nn(C)c(C(=O)NC3CCNC3)c2c1 (single isomer, unassigned) [Cpd 215 - En1]
1 to 20 | Cc1ncsc1COc1ccc2nn(C)c(C(=O)NC3CCNC3)c2c1 (single isomer, unassigned) [Cpd 215 - En2]
> 20 | Cn1nc2ccc(OCc3ccccn3)cc2c1C(=O)NC1CCNC1 (single isomer, unassigned) [Cpd 216 - En1]

IC50 [µM] | SMILES
1 to 20 | Cn1nc2ccc(OCc3ccccn3)cc2c1C(=O)NC1CCNC1 (single isomer, unassigned) [Cpd 216 - En2]
> 20 | Cn1nc2ccc(OCc3ccccn3)cc2c1C(=O)NC(CO)c1ccc(F)cc1 (single isomer, unassigned) [Cpd 220 - En1]
> 20 | Cn1nc2ccc(OCc3ccccn3)cc2c1C(=O)NC(CO)c1ccc(F)cc1 (single isomer, unassigned) [Cpd 220 - En2]
1 to 20 | Cn1nc2ccc(OCc3ccccn3)cc2c1C(=O)NC(CO)c1ccccn1 (single isomer, unassigned) [Cpd 221 - En1]
1 to 20 | Cn1nc2ccc(OCc3ccccn3)cc2c1C(=O)NC(CO)c1ccccn1 (single isomer, unassigned) [Cpd 221 - En2]
> 20 | Cn1nc2ccc(OCc3ccccn3)cc2c1C(=O)NC(CCO)c1ccc(F)cc1 (single isomer, unassigned) [Cpd 223 - En1]
> 20 | Cn1nc2ccc(OCc3ccccn3)cc2c1C(=O)NC(CCO)c1ccc(F)cc1 (single isomer, unassigned) [Cpd 223 - En2]
< 1 | Cn1nc2ccc(OCc3ccccn3)cc2c1C(=O)NC(CO)CC(F)(F)F (single isomer, unassigned) [Cpd 226-En1]
> 20 | Cn1nc2ccc(OCc3ccccn3)cc2c1C(=O)NC(CO)CC(F)(F)F (single isomer, unassigned) [Cpd 226-En2]
< 1 | Cn1nc2ccc(OCc3ccccn3)cc2c1C(=O)NC(CO)C(C(F)(F)F)C(F)(F)F (single isomer, unassigned) [Cpd 227 - En1]
> 20 | Cn1nc2ccc(OCc3ccccn3)cc2c1C(=O)NC(CO)C(C(F)(F)F)C(F)(F)F (single isomer, unassigned) [Cpd 227 - En2]
< 1 | Cn1nc2ccc(OCc3ccccn3)cc2c1C(=O)NC(CO)CC(F)F (single isomer, unassigned) [Cpd 228 - En1]
> 20 | Cn1nc2ccc(OCc3ccccn3)cc2c1C(=O)NC(CO)CC(F)F (single isomer, unassigned) [Cpd 228 - En2]
1 to 20 | CN(C)CC(C)(CC(F)F)NC(=O)c1c2cc(OCc3ccccn3)ccc2nn1C (single isomer, unassigned) [Cpd 229 - En1, N-[1-(dimethylamino)-4,4-difluoro-2-methylbutan-2-yl]-2-methyl-5-[(pyridin-2-yl)methoxy]-2H-indazole-3-carboxamide]
> 20 | CN(C)CC(C)(CC(F)F)NC(=O)c1c2cc(OCc3ccccn3)ccc2nn1C (single isomer, unassigned) [Cpd 229 - En2, N-[1-(dimethylamino)-4,4-difluoro-2-methylbutan-2-yl]-2-methyl-5-[(pyridin-2-yl)methoxy]-2H-indazole-3-carboxamide]
> 20 | COCC(C)(CC(F)F)NC(=O)c1c2cc(OCc3ccccn3)ccc2nn1C (single isomer, unassigned) [Cpd 230 - En1]
1 to 20 | COCC(C)(CC(F)F)NC(=O)c1c2cc(OCc3ccccn3)ccc2nn1C (single isomer, unassigned) [Cpd 230 - En2]
1 to 20 | CC(=O)C(C)(CO)NC(=O)c1c2cc(OCc3ccccn3)ccc2nn1C (single isomer, unassigned) [Cpd 232 - En1]
< 1 | CC(=O)C(C)(CO)NC(=O)c1c2cc(OCc3ccccn3)ccc2nn1C (single isomer, unassigned) [Cpd 232 - En2]
> 20 | Cn1nc2ccc(OCc3ccccn3)cc2c1C(=O)NC1(CO)CC1(F)F (single isomer, unassigned) [Cpd 235 - En1, N-[2,2-difluoro-1-(hydroxymethyl)cyclopropyl]-2-methyl-5-[(pyridin-2-yl)methoxy]-2H-indazole-3-carboxamide]
1 to 20 | Cn1nc2ccc(OCc3ccccn3)cc2c1C(=O)NC1(CO)CC1(F)F (single isomer, unassigned) [Cpd 235 - En2, N-[2,2-difluoro-1-(hydroxymethyl)cyclopropyl]-2-methyl-5-[(pyridin-2-yl)methoxy]-2H-indazole-3-carboxamide]
